Test results taken from paper PMC12844124, “Synthesis and Study of Substituted Chalcones Combined with Fluoroazobenzenes—New Photoswitches for Application in Biological Systems” (Molecules, 2026).

Experiments:
[1] = Changes over time of Z to E transition by 19F NMR; format: physicochemical; details: light 525 nm, 100 mM in DMSO
Source text: We can observe that for electromagnetic radiation in the range of wavelengths 390 nm to 610 nm, transitions from E to Z of about 0–76% are obtained. The best results for all compounds are in visible wavelengths 505 nm or 525 nm (30.59–75.44%). From analyzing Figure 2 we can draw the following conclusions: all synthesized compounds undergo switching under visible light (this is important because UV radiation can damage the DNA of cells, inhibiting replication and, as a result, preventing cell division). For the 2,6-difluoro substituents (17i), (17j), (17k), and (17l) with values of 74.84%, 73.2%, 74.39%, and 75.44%, respectively, the largest share of the Z configuration is at (525 nm) and, for the rest of (17a), (17b), (17c), (17e), (17f), and (17g), it is in range of 30.57–47.13% at 505 nm. […] Multiple cycles of photoreversible switching under alternating green and blue light irradiation, with no significant photobleaching or degradation, confirmed the repeatable and robust photochromic conversion of the synthesized azobenzenes (Figure 2b). Then we measured changes over time (transitions from Z to E, upon irradiation with 505 nm for (17a–17c) and (17e–17g), and 525 nm for (17i–17l) compounds (Figure 3, and see Section S4.3 in Supplementary Materials).

[2] = UV–VIS spectra of E/Z isomers in DMSO; format: physicochemical
Experimental: For this purpose, the UV–VIS spectra were measured for all synthesized hybrids (17a–17l) at concentrations from 20 to 500 µM in dimethyl sulfoxide (DMSO) in light at λ 505 nm and for (17a–17c), (17e–17g), and (17i–17l) at λ 525 nm, respectively, as detailed in Table 1 (see Section S4.4 in Supplementary Materials).

PC-3 cells = assay: Cell cycle analysis by flow cytometry, PC-3; format: cell-based, human; details: Z conformer, 24 h; for percentage of cells in the G2/M phase: control 26.5%
Experimental: The BJ or PC-3 cells were treated as described previously, with the exception that 0.15 × 10^6 cells per well were seeded in 6-well plates. After 24 h of treatment, cells were harvested by trypsinization (Biowest, Nuaillé, France, L0931), washed twice, resuspended in PBS, and added to cold 70% ethanol for overnight fixation at −20 °C. Subsequently, cells were centrifuged and resuspended in PBS containing 5 µg/mL of propidium iodide in PBS (Sigma-Aldrich, St. Louis, MO, USA, 4170), 0.1% Triton X-100, and 10 µg/mL of DNAse-free RNAse (A&A Biotechnology, Gdansk, Poland, 1006-10) in the dark for 4 h at 37 °C. FACS analysis was performed using a FACSCanto II flow cytometer and FACSDiva, version 9.0 software (BD Biosciences, San Jose, CA, USA). Flow rate was set to about 1000 events/cells per second. Signals from at least 10,000 events per sample were captured. The percentages of PC-3 cells in cell cycle phases (G0/G1, S, and G2/M) were determined using ModFit LT 4.1.7 (Verity Software House, Topsham, ME, USA).

BJ fibroblasts = assay: MTS cell proliferation assay, BJ fibroblasts; format: cell-based, human; details: for IC50: Homo sapiens, Fibroblast
Experimental: Human BJ fibroblasts (American Type Cell Culture Collection, Manassas, VA, USA, CRL-2522) and human prostate cancer cell line PC-3 (American Type Cell Culture Collection, Manassas, VA, USA, CRL-1435), derived from bone metastases, were routinely grown in […]) Medium (ThermoFisher, Waltham, MA, USA, 21127-022) and supplemented with heat-inactivated 10% Fetal Bovine Serum (Biowest, France, […]) and 1% antibiotic solution (Biowest, Nuaillé, France, L0022), in a humidified 5% CO2 atmosphere at 37 °C. Cells were used between 3 and 20 passages. The 96-well plates were prepared by seeding 5 × 10^3 or 2.5 × 10^3 cells per well, for 24 and 48 h treatments, respectively, with at least five technical and two biological repeats. […] The cells were treated with either the Z conformer of 17j, with continuous illumination with 525 nm light, or the E conformer. The Z conformer was prepared by illuminating its DMSO solution with 525 nm light overnight. The cell proliferation was analyzed with CellTiter Aqueous One Solution Cell Proliferation MTS (3-(4,5-dimethylthiazol-2-yl)-5-(3-carboxymethoxyphenyl)-2-(4-sulfophenyl)-2H-tetrazolium) Assay (Promega, Madison, WI, USA, G5430) after 24 or 48 h of treatment. The absorbance was measured at 490 and 670 nm with FLUOStar Omega plate reader (BMG LABTECH GmbH, Ortenberg, Germany). The statistical analysis was performed within R 4.5.1 project. […] The log-logistic four parametric model (4PL), with the lower limit boundary set to 0 and group fitting, was used, as available in the drc package, to fit cell proliferation data. The residuals were checked for normality with QQ and density plots and considered as sufficiently normally distributed. The assessment metrics for model goodness of fit were performed with functions available in the drc package and with custom ones. When appropriate, the delta method was applied to obtain error of central tendency. To assess the goodness of fit for each of the biological replicates, deviance R^2 (DR^2) was calculated and assessed. […] The DR^2 was calculated according to the following Equation: 1 - (Dres/Dnull), where Dres-residual deviance and Dnull-null deviance (deviance of the model with mean as a predicted value). The null hypothesis was assessed with the two-way ANOVA with Tukey's post hoc test for multiple comparisons or with the two-way t-test when only two groups were compared. The differences in the cell cycle percentages were assessed with the two-way ANOVA with Tukey's post hoc test.

Z isomer, changes over time ([1]; 0 h): 73.2%
Z isomer, changes over time ([1]; 1 h): 72.55%
Z isomer, changes over time ([1]; 2 h): 71.89%
Z isomer, changes over time ([1]; 3 h): 71.23%
Z isomer, changes over time ([1]; 4 h): 71%
Z isomer, changes over time ([1]; 5 h): 70.01%
Z isomer, changes over time ([1]; 6 h): 69.58%
Z isomer, changes over time ([1]; 7 h): 69.12%
Z isomer, changes over time ([1]; 8 h): 67.9%
Δ (Z to E change 0 h to 8 h) [1]: 5.3%
εmax (n→π*) ([2]; E isomer): 922 dm^3·mol^−1·cm^−1
λmax n→π* (E) ([2]; E isomer): 448.3 nm
εmax (n→π*) ([2]; Z isomer): 1130 dm^3·mol^−1·cm^−1
λmax n→π* (Z) ([2]; Z isomer): 417.4 nm
Δ λmax n→π* ([2]; between E and Z isomers): 30.9 nm
SMILES: COc1cc(/C=C/C(=O)c2cccc(/N=N/c3c(F)cccc3F)c2)cc(OC)c1 [Compound 17j]
percentage of cells in the G2/M phase (PC-3 cells; 20 µM): 30.2%
percentage of cells in the S phase (PC-3 cells; 30 µM): 28.8%
percentage of cells in the G2/M phase (PC-3 cells; 30 µM): 37.0%
percentage of cells in the S phase (PC-3 cells; 40 µM): 31%
percentage of cells in the G2/M phase (PC-3 cells; 40 µM): 32.1%
growth inhibition (normalized asymptote) (BJ fibroblasts; E conformer, 48 h): 5.3 ± 1.2%
IC50 (BJ fibroblasts; 24 h, E conformer, 24 h treatment): 6.59 ± 0.38 µM
IC50 (BJ fibroblasts; 24 h, Z conformer, 24 h treatment): 10.1 ± 1.4 µM
IC50 (BJ fibroblasts; 48 h, E conformer, 48 h treatment): 2.66 ± 0.15 µM
IC50 (BJ fibroblasts; 48 h, Z conformer, 48 h treatment): 4.02 ± 0.39 µM
growth inhibition (normalized asymptote) (BJ fibroblasts; Z conformer, 24 h): 18.7 ± 9.7%
growth inhibition (normalized asymptote) (BJ fibroblasts; Z conformer, 48 h): 13.3 ± 6.1%
